# Experimental data reported in ChEMBL document CHEMBL3885861, “Open TG-GATES”.
# Species on record: Rattus norvegicus
# Assay: Open TG-GATES - Regimen: Single
# Format: toxicity, organism-based, Sprague-Dawley
# Set-up: regimen Single, gender Male, age 6 weeks
# Conditions: in vivo, po, route gavage; for APTT / Bas / Eos / Fbg / Hb / Lym / MCH / MCHC / MCV / Mono / PT / Plat / RBC / Ret / WBC / Ht / Neu: tissue Blood; for KIDNEY_L / KIDNEY_R / KIDNEY_TOTAL: tissue Kidney; for LIVER: tissue Liver
# [1] = 60 mg/kg, 24 h, tissue Plasma, dose level Low
# [2] = 200 mg/kg, 3 h, dose level Middle
# [3] = 200 mg/kg, 3 h, tissue Plasma, dose level Middle
# [4] = 200 mg/kg, 6 h, dose level Middle
# [5] = 200 mg/kg, 6 h, tissue Plasma, dose level Middle
# [6] = 200 mg/kg, 9 h, dose level Middle
# [7] = 200 mg/kg, 9 h, tissue Plasma, dose level Middle
# [8] = 200 mg/kg, 24 h, dose level Middle
# [9] = 200 mg/kg, 24 h, tissue Plasma, dose level Middle
# [10] = 400 mg/kg, 3 h, dose level High
# [11] = 400 mg/kg, 3 h, tissue Plasma, dose level High
# [12] = 400 mg/kg, 6 h, dose level High
# [13] = 400 mg/kg, 6 h, tissue Plasma, dose level High
# [14] = 400 mg/kg, 9 h, dose level High
# [15] = 400 mg/kg, 9 h, tissue Plasma, dose level High
# [16] = 400 mg/kg, 24 h, dose level High
# [17] = 400 mg/kg, 24 h, tissue Plasma, dose level High
compound,measurement,setting,value
CC(C)Cc1ccc(C(C)C(=O)O)cc1 (stereo not drawn) [IBUPROFEN],TG,[1],83.2 mg/dL
same,TP,[1],5.5 g/dL
same,gamma-GTP,[1],1.4 IU/L
same,TERMINAL_BW,[2],203.6 g
same,APTT,[2],21.7 s
same,Bas,[2],0%
same,Eos,[2],0.8%
same,Fbg,[2],294 mg/dL
same,Hb,[2],13 g/dL
same,Lym,[2],78.6%
same,MCH,[2],21.8 pg
same,MCHC,[2],33.8%
same,MCV,[2],64.6 fL
same,Mono,[2],1.6%
same,PT,[2],15.6 s
same,Plat,[2],130.9 x10_4/uL
same,RBC,[2],596.8 x10_4/ul
same,Ret,[2],8.5%
same,WBC,[2],68.9 x10_2/uL
same,KIDNEY_L,[2],0.9 g
same,KIDNEY_R,[2],0.9 g
same,KIDNEY_TOTAL,[2],1.8 g
same,LIVER,[2],9.4 g
same,ALP,[3],1619.6 IU/L
same,ALT,[3],50.2 IU/L
same,AST,[3],86.4 IU/L
same,CRE,[3],0.2 mg/dL
same,DBIL,[3],0.002 mg/dL
same,GLC,[3],180 mg/dL
same,IP,[3],8.8 mg/dL
same,K,[3],4 meq/L
same,LDH,[3],307.4 IU/L
same,Na,[3],141.6 meq/L
same,PL,[3],125.2 mg/dL
same,RALB,[3],3.1 g/dL
same,TBIL,[3],0.022 mg/dL
same,TC,[3],73 mg/dL
same,TG,[3],64.2 mg/dL
same,TP,[3],5.4 g/dL
same,gamma-GTP,[3],1 IU/L
same,TERMINAL_BW,[4],197.7 g
same,Bas,[4],0%
same,Eos,[4],1%
same,Fbg,[4],277 mg/dL
same,Hb,[4],13.4 g/dL
same,Ht,[4],39.7%
same,Lym,[4],74.2%
same,MCHC,[4],33.7%
same,MCV,[4],65.6 fL
same,Mono,[4],2.6%
same,PT,[4],15.5 s
same,Plat,[4],122.9 x10_4/uL
same,RBC,[4],605 x10_4/ul
same,Ret,[4],8.2%
same,WBC,[4],77.7 x10_2/uL
same,KIDNEY_L,[4],0.9 g
same,KIDNEY_R,[4],0.9 g
same,KIDNEY_TOTAL,[4],1.8 g
same,LIVER,[4],8.6 g
same,ALP,[5],1495.2 IU/L
same,ALT,[5],48.6 IU/L
same,AST,[5],83.4 IU/L
same,CRE,[5],0.2 mg/dL
same,DBIL,[5],0.002 mg/dL
same,GLC,[5],170.8 mg/dL
same,IP,[5],9.6 mg/dL
same,K,[5],4.3 meq/L
same,LDH,[5],244.8 IU/L
same,Na,[5],140.4 meq/L
same,PL,[5],110.6 mg/dL
same,RALB,[5],2.8 g/dL
same,TBIL,[5],0.022 mg/dL
same,TC,[5],63.8 mg/dL
same,TG,[5],57.2 mg/dL
same,TP,[5],5.2 g/dL
same,gamma-GTP,[5],1 IU/L
same,TERMINAL_BW,[6],200.1 g
same,APTT,[6],21.5 s
same,Bas,[6],0%
same,Eos,[6],0.4%
same,Fbg,[6],268.6 mg/dL
same,Hb,[6],13.2 g/dL
same,Ht,[6],39.7%
same,Lym,[6],60.8%
same,MCHC,[6],33.3%
same,MCV,[6],63.6 fL
same,Mono,[6],3%
same,Neu,[6],35%
same,PT,[6],15.8 s
same,Plat,[6],113 x10_4/uL
same,RBC,[6],624.6 x10_4/ul
same,Ret,[6],7.8%
same,WBC,[6],87.7 x10_2/uL
same,KIDNEY_L,[6],0.9 g
same,KIDNEY_R,[6],0.9 g
same,KIDNEY_TOTAL,[6],1.8 g
same,LIVER,[6],8.1 g
same,ALP,[7],1296.6 IU/L
same,ALT,[7],37.4 IU/L
same,AST,[7],69.2 IU/L
same,CRE,[7],0.2 mg/dL
same,DBIL,[7],0.004 mg/dL
same,GLC,[7],180.2 mg/dL
same,K,[7],4.3 meq/L
same,LDH,[7],226.2 IU/L
same,Na,[7],140.6 meq/L
same,RALB,[7],2.8 g/dL
same,TBIL,[7],0.018 mg/dL
same,TC,[7],60.6 mg/dL
same,TG,[7],50.4 mg/dL
same,TP,[7],5 g/dL
same,gamma-GTP,[7],1.2 IU/L
same,TERMINAL_BW,[8],212.3 g
same,APTT,[8],21.5 s
same,Bas,[8],0%
same,Eos,[8],1%
same,Fbg,[8],360 mg/dL
same,Hb,[8],12.9 g/dL
same,Ht,[8],37.8%
same,Lym,[8],66.4%
same,MCH,[8],21.7 pg
same,MCHC,[8],34.3%
same,MCV,[8],63.3 fL
same,Mono,[8],4.2%
same,PT,[8],16.2 s
same,Plat,[8],111.7 x10_4/uL
same,RBC,[8],596.8 x10_4/ul
same,Ret,[8],7.5%
same,KIDNEY_L,[8],0.9 g
same,KIDNEY_R,[8],1 g
same,KIDNEY_TOTAL,[8],1.9 g
same,ALP,[9],1263 IU/L
same,ALT,[9],41.4 IU/L
same,AST,[9],69.2 IU/L
same,CRE,[9],0.2 mg/dL
same,Ca,[9],10.4 mg/dL
same,DBIL,[9],0 mg/dL
same,GLC,[9],182.8 mg/dL
same,IP,[9],7.6 mg/dL
same,K,[9],4.3 meq/L
same,LDH,[9],210.6 IU/L
same,Na,[9],141.8 meq/L
same,PL,[9],145.2 mg/dL
same,RALB,[9],2.7 g/dL
same,TBIL,[9],0.002 mg/dL
same,TC,[9],77 mg/dL
same,TG,[9],141.2 mg/dL
same,TP,[9],5 g/dL
same,gamma-GTP,[9],1.4 IU/L
same,TERMINAL_BW,[10],201.6 g
same,APTT,[10],20.6 s
same,Bas,[10],0%
same,Eos,[10],0.8%
same,Fbg,[10],281.4 mg/dL
same,Hb,[10],13.2 g/dL
same,Ht,[10],39.2%
same,Lym,[10],77.2%
same,MCH,[10],21.6 pg
same,MCHC,[10],33.7%
same,MCV,[10],64.2 fL
same,Mono,[10],1.6%
same,Neu,[10],19.8%
same,PT,[10],15.7 s
same,Plat,[10],118.2 x10_4/uL
same,RBC,[10],610.8 x10_4/ul
same,Ret,[10],8.1%
same,WBC,[10],69.4 x10_2/uL
same,KIDNEY_L,[10],0.9 g
same,KIDNEY_R,[10],0.9 g
same,KIDNEY_TOTAL,[10],1.8 g
same,LIVER,[10],8.7 g
same,ALP,[11],1604.2 IU/L
same,ALT,[11],52.2 IU/L
same,AST,[11],80.4 IU/L
same,CRE,[11],0.2 mg/dL
same,DBIL,[11],0 mg/dL
same,GLC,[11],162 mg/dL
same,IP,[11],9.7 mg/dL
same,K,[11],4 meq/L
same,LDH,[11],264.8 IU/L
same,Na,[11],140.6 meq/L
same,RALB,[11],2.7 g/dL
same,TBIL,[11],0.026 mg/dL
same,TC,[11],69.8 mg/dL
same,TG,[11],37.8 mg/dL
same,TP,[11],5.3 g/dL
same,gamma-GTP,[11],1.4 IU/L
same,TERMINAL_BW,[12],200.3 g
same,APTT,[12],21 s
same,Bas,[12],0%
same,Eos,[12],1%
same,Fbg,[12],283.4 mg/dL
same,Hb,[12],13.2 g/dL
same,Ht,[12],39.3%
same,Lym,[12],72.2%
same,MCH,[12],21.5 pg
same,MCHC,[12],33.7%
same,MCV,[12],63.9 fL
same,Mono,[12],2.6%
same,Neu,[12],23.4%
same,PT,[12],15.5 s
same,Plat,[12],116.4 x10_4/uL
same,RBC,[12],614.8 x10_4/ul
same,Ret,[12],8.2%
same,WBC,[12],67.5 x10_2/uL
same,KIDNEY_L,[12],0.9 g
same,KIDNEY_R,[12],0.9 g
same,KIDNEY_TOTAL,[12],1.8 g
same,LIVER,[12],8.2 g
same,ALP,[13],1535.4 IU/L
same,ALT,[13],48.8 IU/L
same,AST,[13],76 IU/L
same,CRE,[13],0.2 mg/dL
same,DBIL,[13],0.006 mg/dL
same,GLC,[13],172.8 mg/dL
same,IP,[13],9.9 mg/dL
same,K,[13],4.2 meq/L
same,LDH,[13],246.4 IU/L
same,Na,[13],140.2 meq/L
same,RALB,[13],2.9 g/dL
same,TBIL,[13],0.016 mg/dL
same,TC,[13],62.6 mg/dL
same,TG,[13],51.8 mg/dL
same,TP,[13],5.3 g/dL
same,gamma-GTP,[13],1 IU/L
same,TERMINAL_BW,[14],204.9 g
same,APTT,[14],21.6 s
same,Bas,[14],0%
same,Eos,[14],0.6%
same,Fbg,[14],261.4 mg/dL
same,Ht,[14],39.8%
same,Lym,[14],63.4%
same,MCH,[14],21.3 pg
same,MCHC,[14],33.3%
same,MCV,[14],63.8 fL
same,Mono,[14],3%
same,Neu,[14],32.8%
same,PT,[14],15.6 s
same,Plat,[14],120.1 x10_4/uL
same,RBC,[14],624.4 x10_4/ul
same,Ret,[14],7.8%
same,WBC,[14],76.3 x10_2/uL
same,KIDNEY_L,[14],0.9 g
same,KIDNEY_R,[14],0.9 g
same,KIDNEY_TOTAL,[14],1.8 g
same,LIVER,[14],8.2 g
same,ALP,[15],1623.8 IU/L
same,ALT,[15],43.4 IU/L
same,AST,[15],73 IU/L
same,CRE,[15],0.2 mg/dL
same,DBIL,[15],0.006 mg/dL
same,GLC,[15],180.4 mg/dL
same,IP,[15],10.2 mg/dL
same,K,[15],4.1 meq/L
same,LDH,[15],257 IU/L
same,Na,[15],140.8 meq/L
same,PL,[15],97.4 mg/dL
same,RALB,[15],2.8 g/dL
same,TBIL,[15],0.016 mg/dL
same,TC,[15],53.6 mg/dL
same,TG,[15],46.4 mg/dL
same,TP,[15],5 g/dL
same,gamma-GTP,[15],1 IU/L
same,TERMINAL_BW,[16],209.2 g
same,APTT,[16],21.1 s
same,Bas,[16],0%
same,Eos,[16],0.6%
same,Fbg,[16],375.8 mg/dL
same,Hb,[16],13.1 g/dL
same,Ht,[16],38.2%
same,Lym,[16],57.2%
same,MCHC,[16],34.3%
same,MCV,[16],61.7 fL
same,Mono,[16],4.2%
same,Neu,[16],36.2%
same,PT,[16],16.1 s
same,RBC,[16],619.4 x10_4/ul
same,Ret,[16],6.8%
same,KIDNEY_L,[16],0.9 g
same,KIDNEY_R,[16],1 g
same,KIDNEY_TOTAL,[16],1.9 g
same,LIVER,[16],10.1 g
same,ALP,[17],1531.4 IU/L
same,ALT,[17],44 IU/L
same,AST,[17],72.6 IU/L
same,CRE,[17],0.2 mg/dL
same,DBIL,[17],0.004 mg/dL
same,GLC,[17],175.2 mg/dL
same,IP,[17],7.5 mg/dL
same,K,[17],4.3 meq/L
same,LDH,[17],212.4 IU/L
same,Na,[17],141 meq/L
same,PL,[17],129.4 mg/dL
same,RALB,[17],2.7 g/dL
same,TBIL,[17],0.002 mg/dL
same,TG,[17],104.2 mg/dL
same,TP,[17],4.9 g/dL
same,gamma-GTP,[17],1 IU/L
